Laboratory results from patent EP0440303A1 (PROBICOM RESEARCH B.V., priority 1990, dated 1991).
Where two headings read alike, the source gives them in different places. Where a SMILES comes first, the peptide text is derived from it.

T1: tripeptidase of L.lactis subsp. cremoris Wg2 (Lactococcus lactis subsp. cremoris, UniProt P0C2T7)
T1 sequence (P0C2T7 1-413): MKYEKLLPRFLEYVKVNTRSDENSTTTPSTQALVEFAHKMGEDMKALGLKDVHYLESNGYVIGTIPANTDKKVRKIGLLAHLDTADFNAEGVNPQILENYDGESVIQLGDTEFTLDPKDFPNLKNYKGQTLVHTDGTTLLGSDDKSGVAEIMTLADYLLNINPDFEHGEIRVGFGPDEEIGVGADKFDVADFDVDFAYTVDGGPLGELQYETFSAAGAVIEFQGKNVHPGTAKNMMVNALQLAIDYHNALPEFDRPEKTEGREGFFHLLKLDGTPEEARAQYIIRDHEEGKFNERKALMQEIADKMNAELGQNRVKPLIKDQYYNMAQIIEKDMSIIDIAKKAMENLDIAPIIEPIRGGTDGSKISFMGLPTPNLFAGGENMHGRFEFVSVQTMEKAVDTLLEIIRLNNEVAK

B1: tripeptidase of L.lactis subsp. cremoris Wg2 (Lactococcus cremoris) (protein)
chain: T1 sequence (P0C2T7 1-413)
notes: the resulting supernatant (i.e. cell-free extract) was used for enzyme isolation; made in house; host or cells: Natural producer L. lactis subsp. cremoris Wg2 (proteinase-negative variant), not recombinant; Purified by DEAE-Sephacel, Phenyl-Sepharose, Sephadex G-100 SF and HPLC TSK G3000 SW

Columns and labels:
[1] = target: T1, tripeptidase of L.lactis subsp. cremoris Wg2; assay: Substrate specificity: peptide hydrolysis analysed by TLC; type: biochemical; parameters: key: + : hydrolysis; - : no hydrolysis; details: peptide hydrolysis by the purified peptidase, 2 mM substrate in 20 mM HEPES (pH 7.0), 60 min at 30°C
[2] = target: T1, tripeptidase of L.lactis subsp. cremoris Wg2; assay: Effects of chemical agents on the peptidase activity (leu3 hydrolysis); type: biochemical
[3] = target: T1, tripeptidase of L.lactis subsp. cremoris Wg2; assay: biochemical; details: read-out: inhibition of the enzyme activity
Protocol: Peptidase activity was determined by measuring the release of leucine from the tripeptide leucyl-leucyl-leucine (leu₃) (2 mM in 20 mM 4-(2-hydroxyethyl)-1-piperazine-ethane-sulphonic acid [HEPES], pH 7.0). Enzyme and substrate were incubated for 10 min. at 30°C, and the release of leucine was measured by the modified cadmium-ninhydrin method as described by Doi et al., Anal.Biochem. 118, 1981, 173-184. […] Peptidase activity was determined as follows: the reaction mixture containing 2 mM substrate in 20 mM HEPES (pH 7.0) and a suitable amount of enzyme was incubated for 60 min. at 30°C.
All the metal ions were added in the form of chlorides to exclude a possible effect of the anions.

[4] = substrate: CC(C)C[C@H](NC(=O)[C@H](CC(C)C)NC(=O)[C@@H](N)CC(C)C)C(=O)O; assay: Determination of kinetic parameters for leu3 hydrolysis (coupled enzyme reaction); type: biochemical, L.lactis subsp. cremoris Wg2; details: other: leu₃ as substrate, 30°C
[5] = pH 7, read-out: relative activity (%)
[6] = NEM 0.5 mM, cystine 0.05 mM, phenylarsine oxide 0.1 mM, DTT 1 mM, β-mercaptoethanol 0.4 mM, ferricyanide 3 mM after the reducing agents
[7] = summary statement, concentration not given

Molecule | activity [1] | also measured
NCC(=O)N1CCC[C@H]1C(=O)NCC(=O)NCC(=O)O [Gly-Pro-Gly-Gly] (H-GPGG-OH) | - | 
NC(Cc1ccccc1)C(=O)NCC(=O)NCC(=O)O (stereo not drawn) [Phe-Gly-Gly] | + | 
C[C@H](N)C(=O)N[C@@H](C)C(=O)N[C@@H](C)C(=O)O [Ala3] | + | 
CC(NC(=O)C(Cc1ccc(O)cc1)NC(=O)CN)C(=O)O (stereo not drawn) [Gly-Tyr-Ala] | + | 
CSCCC(N)C(=O)NCC(=O)NCC(=O)O (stereo not drawn) [Met-Gly-Gly] | + | 
N[C@@H](CCC(=O)O)C(=O)N[C@@H](CCC(=O)O)C(=O)O [Glu-Glu] (H-Glu-Glu-OH) | - | 
NCC(=O)NCC(=O)NC(Cc1ccccc1)C(=O)O (stereo not drawn) [Gly-Gly-Phe] | + | 
NCC(=O)NCC(=O)O [Gly-Gly] (H-Gly-Gly-OH) | - | 
CC(C)CC(NC(=O)C(NC(=O)C(C)N)C(C)C)C(=O)O (stereo not drawn) [Ala-Val-Leu] | + | 
C[C@H](N)C(=O)N[C@@H](C)C(=O)N[C@@H](C)C(=O)N[C@@H](C)C(=O)N[C@@H](C)C(=O)N[C@@H](C)C(=O)O [Ala6] | - | 
CC(C)C[C@H](NC(=O)[C@@H](N)CC(C)C)C(=O)O [Leu-Leu] | - | 
CC(C)C[C@H](NC(=O)[C@H](CC(C)C)NC(=O)[C@@H](N)CC(C)C)C(=O)O [Leu-Leu-Leu, leucyl-leucyl-leucine] (H-Leu-Leu-Leu-OH) | + | 
oxidized β-chain insulin | - | 
CC(C)C[C@H](N)C(=O)NCC(=O)NCC(=O)O [Leu-Gly-Gly, leucyl-glycyl-glycine] (H-Leu-Gly-Gly-OH) | + | 
CSCC[C@H](NC(=O)[C@H](CC(C)C)NC(=O)CNC(=O)[C@H](Cc1ccccc1)NC(=O)[C@H](Cc1ccccc1)NC(=O)[C@H](CCC(N)=O)NC(=O)[C@H](CCC(N)=O)NC(=O)[C@@H]1CCCN1C(=O)[C@H](CCCCN)NC(=O)[C@@H]1CCCN1C(=O)[C@@H](N)CCCNC(=N)N)C(N)=O [Substance P] | - | 
CSCC[C@H](NC(=O)[C@@H](N)CC(C)C)C(=O)O [Leu-Met] (H-Leu-Met-OH) | - | 
CC(NC(=O)C(CO)NC(=O)CN)C(=O)O (stereo not drawn) [Gly-Ser-Ala] | + | 
C[C@H](N)C(=O)N[C@@H](C)C(=O)N[C@@H](C)C(=O)N[C@@H](C)C(=O)N[C@@H](C)C(=O)O [Ala5] | - | 
CC(C)[C@H](N)C(=O)NCC(=O)NCC(=O)O [Val-Gly-Gly] (H-Val-Gly-Gly-OH) | + | 

Molecule | activity [1] | also measured
CCN1C(=O)C=CC1=O [NEM, N-ethylmaleimide] |  | effect on the enzyme activity (in words) [2]: slightly inhibited the activity; activity at 500 µM [2, 5]: 76%
CC(C)[C@H](NC(=O)[C@@H](N)CCC(=O)O)C(=O)O [Glu-Val] (H-Glu-Val-OH) | - | 
N[C@@H](Cc1c[nH]c2ccccc12)C(=O)NCC(=O)NCC(=O)O [Trp-Gly-Gly] (H-Trp-Gly-Gly-OH) | + | 
C[C@H](N)C(=O)N[C@@H](Cc1cnc[nH]1)C(=O)N[C@@H](C)C(=O)O [Ala-His-Ala] (H-Ala-His-Ala-OH) | + | 
O[C@H](CS)[C@H](O)CS (racemic) [DTT, dithiothreitol] |  | effect on the enzyme activity (in words) [2, 6]: strong inhibition; activity at 1000 µM ([2]; reagent 1 mM, 0.84 μg enzyme/ml, 10 min at pH 7 (20°C) before leu3 was added, none = 100, read-out: relative activity (%)): 4%; effect on the enzyme (summary in words) [2, 7]: strong inhibition
OCCS [β-Mercaptoethanol, β-mercaptoethanol] |  | effect on the enzyme activity (in words) [2, 6]: strong inhibition; activity at 400 µM [2, 5]: 14%; effect on the enzyme (summary in words) [2, 7]: strong inhibition
CC(C)CC(NC(=O)CNC(=O)CN)C(=O)O (stereo not shown) | + | 
NCCCC[C@H](NC(=O)[C@@H](N)CCC(=O)O)C(=O)O [Glu-Lys] (H-Glu-Lys-OH) | - | 
O=C(O)CN(CCN(CC(=O)O)CC(=O)O)CC(=O)O [EDTA] |  | inhibition at 200 µM [3]: 79%
NCCC[C@H](NC(=O)[C@H](CCCN)NC(=O)[C@@H](N)CCCN)C(=O)O [Orn-Orn-Orn] | + | 
C[C@H](NC(=O)[C@@H](N)CCC(=O)O)C(=O)O [Glu-Ala] (H-Glu-Ala-OH) | - | 
O=S(=O)(O)c1cc[c]([Hg][Cl])cc1 [pCMBS, p-chloromercuribenzenesulphonate] |  | effect on the enzyme (summary in words) [2]: not inhibited
O=C(O)CNC(=O)CNC(=O)C1CCCN1 (stereo not drawn) [Pro-Gly-Gly] | + | 
Neurotensin | - | 
NCC(=O)NC(Cc1cnc[nH]1)C(=O)NCC(=O)O (stereo not drawn) [Gly-His-Gly] | + | 
CC(C)CC(NC(=O)CN)C(=O)NC(Cc1ccc(O)cc1)C(=O)O (stereo not drawn) [Gly-Leu-Tyr] (H-Gly-Leu-Tyr-OH; configuration not given here) | + | 
NC(CO)C(=O)NCC(=O)NCC(=O)O (stereo not drawn) [Ser-Gly-Gly] | + | 
COC(CNC(=O)c1ccccc1OCC(=O)O)[CH2][Hg][OH] (stereo not shown) [Mersalyl, o-(3-hydroxymercuri-2-methoxypropyl)carbamylphenoxyacetate] |  | effect on the enzyme (summary in words) [2]: not inhibited
Bradykinin (RPPGFSPFR; Bradykinin; UniProt P01042 381-389, looked up) | - | 

Molecule | activity [1] | also measured
N[C@@H](CSSC[C@H](N)C(=O)O)C(=O)O [Cystine, cystine] |  | effect on the enzyme activity (in words) [2, 6]: had no effect on the enzyme activity; activity at 50 µM ([2]; reagent 0.05 mM, 0.84 μg enzyme/ml, 10 min at pH 7 (20°C) before leu3 was added, none = 100, read-out: relative activity (%)): 118%
C[C@H](N)C(=O)N[C@@H](C)C(=O)N[C@@H](C)C(=O)N[C@@H](C)C(=O)O [Ala4] (H-AAAA-OH) | - | 
C[C@H](N)C(=O)N1CCC[C@H]1C(=O)N[C@@H](C)C(=O)O [Ala-Pro-Ala] (H-Ala-Pro-Ala-OH) | - | 
NCC(=O)NCC(=O)NCC(=O)O [Gly-Gly-Gly] (H-Gly-Gly-Gly-OH) | + | 
CC(C)[C@H](NC(=O)[C@@H](N)CCC(=O)O)C(=O)N[C@@H](Cc1ccccc1)C(=O)O [Glu-Val-Phe] (H-Glu-Val-Phe-OH) | + | 
N[C@@H](Cc1ccc(O)cc1)C(=O)NCC(=O)NCC(=O)O [Tyr-Gly-Gly] (H-Tyr-Gly-Gly-OH) | + | 
N=C(N)NCCCC(N)C(=O)NCC(=O)NCC(=O)O (stereo not drawn) [Arg-Gly-Gly] | + | 
NC(Cc1cnc[nH]1)C(=O)NCC(=O)NCC(=O)O (stereo not drawn) [His-Gly-Gly] | + | 
C[C@H](N)C(=O)N[C@@H](CC(=O)O)C(=O)O [Ala-Asp] (H-Ala-Asp-OH) | - | 
CC(C)C[C@H](N)C(=O)NCC(=O)O [Leu-Gly] (H-Leu-Gly-OH) | - | 
C[C@H](N)C(=O)N[C@@H](C)C(=O)O [Ala2] (H-Ala-Ala-OH) | - | 
C[C@H](N)C(=O)N1CCC[C@H]1C(=O)N[C@@H](Cc1ccccc1)C(=O)O [Ala-Pro-Phe] (H-Ala-Pro-Phe-OH) | - | 
CSCC[C@H](NC(=O)[C@H](Cc1ccccc1)NC(=O)CNC(=O)CNC(=O)[C@@H](N)Cc1ccc(O)cc1)C(=O)O [Met-enkephalin] | - | 
O=C(O)c1cc[c]([Hg][Cl])cc1 [pCMB, p-chloromercuribenzoate] |  | effect on the enzyme (summary in words) [2]: not inhibited
CC(C)CC(NC(=O)C(Cc1ccccc1)NC(=O)CN)C(=O)O (stereo not drawn) [Gly-Phe-Leu] (H-Gly-Phe-Leu-OH; configuration not given here) | + | 
CC(NC(=O)C1CCCN1C(=O)CN)C(=O)O (stereo not drawn) [Gly-Pro-Ala] | - | 
CC(C)C[C@H](NC(=O)[C@@H](N)Cc1ccccc1)C(=O)O [Phe-Leu] (H-Phe-Leu-OH) | - | 
B1 |  | Km [4]: 150 µM; Vmax [4]: 151 µmol/min.mg protein; kcat [4]: 264 s⁻¹
